Drawing on US11939320B2, “Modulators of the integrated stress pathway” (Calico Life Sciences LLC, priority 2017, dated 2024), this text covers EC50 for one compound.

The structures appear in SMILES notation.

For the assay, the system named is HEK293T cells carrying the ATF4 luciferase reporter. Nature of the assay: ATF4-Luc assay (in vitro model of VWMD). Conditions: Homo sapiens, HEK-293T; HEK293T cells with ATF4 5'-UTR firefly luciferase reporter; 1 μg/mL tunicamycin; 7 hours; One Glo luminescence. Type of assay: cell-based. In short, it runs like this:
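Reporter cells were stably generated by retroviral transduction and puromycin selection, then seeded at 30,000 cells/well. Next day, cells received 1 μg/mL tunicamycin with 200 nM test compound for 7 h, and luciferase luminescence was read with a one-step reagent. Values reported as EC50.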
In general terms: In a reporter assay the amount or activity of a reporter protein is the signal.

A word on the EC50: it is the concentration at which the effect is half-maximal.

For the compound `O=C(COc1ccc(Cl)c(F)c1)N[C@H]1CC[C@H](C(=O)NCc2ccc(C(F)F)cn2)CC1` [Compound 187, (1r,4r)-4-[2-(4-chloro-3-fluorophenoxy)acetamido]-N-{[5-(difluoromethyl)pyridin-2-yl]methyl}cyclohexane-1-carboxamide], the EC50 was 0.01 to 0.05 µM.
